{
  "source": "patent US11779529B2",
  "about": "“Personal care composition” (Colgate-Palmolive Company, priority 2017, dated 2023)",
  "tested_on": "Collagen I",
  "test": "Collagen I release from human dermal fibroblast cells, COL1A1 ELISA of supernatants",
  "assay_type": "cell-based",
  "settings": "1 mL composition, 24 hours, 37° C., 5% CO2, average of 3 tests",
  "experimental": "Each of the compositions of Table 3 was tested on human dermal fibroblast cells (Thermo Fisher Scientific, Gaithersburg, Md.) as follows: human dermal fibroblast cells were seeded in 6-well plates and grow until about 80% confluency. 1 mL of each composition was added to the wells in triplicate per composition. The cells were then incubated at 37° C., 5% CO2 for 24 hours and the supernatants were collected and analyzed for Collagen I release. Collagen I release in the supernatants was measured using COL1A1 ELISA kit (MyBioSource, San Diego, Calif.). The data in Table 3 represents the average value for 3 tests.",
  "data": [
    {"smiles": "NCCS(=O)(=O)O", "note": "[Solvent + 0.001% Taurine, Taurine]", "values": [
      {"measurement": "Collagen I", "value": 1.9, "unit": "ng/mL"}
    ]}
  ]
}
